Numbers after ± are expanded uncertainties.
Settings: Hot wire method

F/C=C/C(F)(F)F [trans-1,3,3,3-tetrafluoropropene]
thermal conductivity (293.73 K, 303 kPa, Gas): 0.01311 ± 0.00045 W/m/K
thermal conductivity (293.77 K, 95 kPa, Gas): 0.0133 ± 0.00045 W/m/K
thermal conductivity (293.85 K, 231 kPa, Gas): 0.01317 ± 0.00045 W/m/K
thermal conductivity (293.9 K, 400 kPa, Gas): 0.01318 ± 0.00045 W/m/K
thermal conductivity (294.04 K, 155 kPa, Gas): 0.01319 ± 0.00045 W/m/K
thermal conductivity (294.06 K, 345 kPa, Gas): 0.01312 ± 0.00045 W/m/K
thermal conductivity (294.27 K, 95 kPa, Gas): 0.01329 ± 0.00045 W/m/K
thermal conductivity (294.45 K, 343 kPa, Gas): 0.01318 ± 0.00045 W/m/K
thermal conductivity (301.02 K, 868 kPa, Liquid): 0.07405 ± 0.00082 W/m/K
thermal conductivity (301.09 K, 873 kPa, Liquid): 0.07375 ± 0.00082 W/m/K
thermal conductivity (301.25 K, 21041 kPa, Liquid): 0.08609 ± 0.00095 W/m/K
thermal conductivity (301.27 K, 15433 kPa, Liquid): 0.08285 ± 0.00091 W/m/K
thermal conductivity (301.28 K, 15438 kPa, Liquid): 0.08293 ± 0.001 W/m/K
thermal conductivity (301.32 K, 10268 kPa, Liquid): 0.07996 ± 0.00088 W/m/K
thermal conductivity (301.32 K, 21030 kPa, Liquid): 0.08586 ± 0.00094 W/m/K
thermal conductivity (301.33 K, 5341 kPa, Liquid): 0.07696 ± 0.00085 W/m/K
thermal conductivity (301.35 K, 15435 kPa, Liquid): 0.08267 ± 0.00092 W/m/K
thermal conductivity (301.36 K, 15436 kPa, Liquid): 0.08267 ± 0.00092 W/m/K
thermal conductivity (301.39 K, 877 kPa, Liquid): 0.07371 ± 0.00082 W/m/K
thermal conductivity (301.4 K, 10267 kPa, Liquid): 0.07978 ± 0.00088 W/m/K
thermal conductivity (301.41 K, 810 kPa, Liquid): 0.07351 ± 0.00082 W/m/K
thermal conductivity (301.41 K, 5340 kPa, Liquid): 0.07676 ± 0.00085 W/m/K
thermal conductivity (301.47 K, 877 kPa, Liquid): 0.07359 ± 0.00082 W/m/K
thermal conductivity (301.48 K, 201 kPa, Gas): 0.01405 ± 0.00048 W/m/K
thermal conductivity (301.5 K, 101 kPa, Gas): 0.01387 ± 0.00047 W/m/K
thermal conductivity (301.5 K, 812 kPa, Liquid): 0.07342 ± 0.00082 W/m/K
thermal conductivity (301.64 K, 15430 kPa, Liquid): 0.0828 ± 0.00091 W/m/K
thermal conductivity (301.69 K, 10267 kPa, Liquid): 0.07986 ± 0.00088 W/m/K
thermal conductivity (301.7 K, 201 kPa, Gas): 0.01393 ± 0.00047 W/m/K
thermal conductivity (301.71 K, 21026 kPa, Liquid): 0.08586 ± 0.00094 W/m/K
thermal conductivity (301.72 K, 5338 kPa, Liquid): 0.07673 ± 0.00085 W/m/K
thermal conductivity (301.73 K, 101 kPa, Gas): 0.01377 ± 0.00047 W/m/K
thermal conductivity (301.74 K, 15425 kPa, Liquid): 0.08254 ± 0.00091 W/m/K
thermal conductivity (301.75 K, 15438 kPa, Liquid): 0.08085 ± 0.00089 W/m/K
thermal conductivity (301.8 K, 875 kPa, Liquid): 0.07346 ± 0.00081 W/m/K
thermal conductivity (301.81 K, 10267 kPa, Liquid): 0.07952 ± 0.00088 W/m/K
thermal conductivity (301.82 K, 21035 kPa, Liquid): 0.08546 ± 0.00094 W/m/K
thermal conductivity (301.83 K, 5339 kPa, Liquid): 0.07652 ± 0.00085 W/m/K
thermal conductivity (301.9 K, 871 kPa, Liquid): 0.07331 ± 0.00081 W/m/K
thermal conductivity (301.92 K, 820 kPa, Liquid): 0.07315 ± 0.00081 W/m/K
thermal conductivity (301.95 K, 201 kPa, Gas): 0.01381 ± 0.00047 W/m/K
thermal conductivity (301.98 K, 101 kPa, Gas): 0.01368 ± 0.00046 W/m/K
thermal conductivity (302.06 K, 15424 kPa, Liquid): 0.08252 ± 0.00091 W/m/K
thermal conductivity (302.07 K, 283 kPa, Gas): 0.01426 ± 0.00048 W/m/K
thermal conductivity (302.13 K, 10265 kPa, Liquid): 0.07959 ± 0.00088 W/m/K
thermal conductivity (302.17 K, 5336 kPa, Liquid): 0.0765 ± 0.00085 W/m/K
thermal conductivity (302.2 K, 201 kPa, Gas): 0.01376 ± 0.00047 W/m/K
thermal conductivity (302.23 K, 21022 kPa, Liquid): 0.08536 ± 0.00094 W/m/K
thermal conductivity (302.24 K, 102 kPa, Gas): 0.01362 ± 0.00046 W/m/K
thermal conductivity (302.26 K, 867 kPa, Liquid): 0.07328 ± 0.00082 W/m/K
thermal conductivity (302.26 K, 10266 kPa, Liquid): 0.07933 ± 0.00088 W/m/K
thermal conductivity (302.28 K, 278 kPa, Gas): 0.01416 ± 0.00048 W/m/K
thermal conductivity (302.28 K, 835 kPa, Liquid): 0.07308 ± 0.00081 W/m/K
thermal conductivity (302.31 K, 5328 kPa, Liquid): 0.07627 ± 0.00084 W/m/K
thermal conductivity (302.38 K, 21010 kPa, Liquid): 0.0851 ± 0.00094 W/m/K
thermal conductivity (302.4 K, 858 kPa, Liquid): 0.07303 ± 0.00081 W/m/K
thermal conductivity (302.43 K, 15441 kPa, Liquid): 0.08206 ± 0.00091 W/m/K
thermal conductivity (302.46 K, 201 kPa, Gas): 0.01371 ± 0.00046 W/m/K
thermal conductivity (302.51 K, 101 kPa, Gas): 0.01358 ± 0.00046 W/m/K
thermal conductivity (302.51 K, 273 kPa, Gas): 0.01407 ± 0.00048 W/m/K
thermal conductivity (302.51 K, 345 kPa, Gas): 0.01391 ± 0.00047 W/m/K
thermal conductivity (302.52 K, 15424 kPa, Liquid): 0.08203 ± 0.00091 W/m/K
thermal conductivity (302.61 K, 10265 kPa, Liquid): 0.07929 ± 0.00088 W/m/K
thermal conductivity (302.67 K, 5319 kPa, Liquid): 0.07625 ± 0.00085 W/m/K
thermal conductivity (302.68 K, 15424 kPa, Liquid): 0.08166 ± 0.00091 W/m/K
thermal conductivity (302.74 K, 270 kPa, Gas): 0.01405 ± 0.00048 W/m/K
thermal conductivity (302.77 K, 10264 kPa, Liquid): 0.079 ± 0.00087 W/m/K
thermal conductivity (302.78 K, 847 kPa, Liquid): 0.07298 ± 0.00081 W/m/K
thermal conductivity (302.8 K, 868 kPa, Liquid): 0.07244 ± 0.00082 W/m/K
thermal conductivity (302.84 K, 5317 kPa, Liquid): 0.07599 ± 0.00085 W/m/K
thermal conductivity (302.84 K, 21005 kPa, Liquid): 0.08503 ± 0.00093 W/m/K
thermal conductivity (302.86 K, 345 kPa, Gas): 0.01388 ± 0.00047 W/m/K
thermal conductivity (302.91 K, 15440 kPa, Liquid): 0.08218 ± 0.0009 W/m/K
thermal conductivity (302.94 K, 321 kPa, Gas): 0.01444 ± 0.00049 W/m/K
thermal conductivity (302.99 K, 267 kPa, Gas): 0.01402 ± 0.00047 W/m/K
thermal conductivity (303 K, 21003 kPa, Liquid): 0.08496 ± 0.00093 W/m/K
thermal conductivity (303.03 K, 15420 kPa, Liquid): 0.08154 ± 0.00091 W/m/K
thermal conductivity (303.06 K, 201 kPa, Gas): 0.01387 ± 0.00047 W/m/K
thermal conductivity (303.09 K, 515 kPa, Gas): 0.01405 ± 0.00048 W/m/K
thermal conductivity (303.1 K, 443 kPa, Gas): 0.01398 ± 0.00047 W/m/K
thermal conductivity (303.15 K, Liquid): 0.07268 ± 0.00049 W/m/K
thermal conductivity (303.22 K, 15419 kPa, Liquid): 0.08081 ± 0.00089 W/m/K
thermal conductivity (303.24 K, 345 kPa, Gas): 0.01392 ± 0.00047 W/m/K
thermal conductivity (303.3 K, 101 kPa, Gas): 0.01415 ± 0.00048 W/m/K
thermal conductivity (303.42 K, 515 kPa, Gas): 0.01408 ± 0.00048 W/m/K
thermal conductivity (303.44 K, 443 kPa, Gas): 0.01405 ± 0.00048 W/m/K
thermal conductivity (303.46 K, 201 kPa, Gas): 0.01405 ± 0.00048 W/m/K
thermal conductivity (303.5 K, 21000 kPa, Liquid): 0.08483 ± 0.00093 W/m/K
thermal conductivity (303.63 K, 345 kPa, Gas): 0.01394 ± 0.00047 W/m/K
thermal conductivity (303.77 K, 515 kPa, Gas): 0.01408 ± 0.00048 W/m/K
thermal conductivity (303.8 K, 441 kPa, Gas): 0.01404 ± 0.00048 W/m/K
thermal conductivity (303.82 K, 515 kPa, Gas): 0.01409 ± 0.00048 W/m/K
thermal conductivity (303.89 K, 201 kPa, Gas): 0.01411 ± 0.00048 W/m/K
thermal conductivity (304.06 K, 345 kPa, Gas): 0.01397 ± 0.00047 W/m/K
thermal conductivity (304.14 K, 515 kPa, Gas): 0.01407 ± 0.00048 W/m/K
thermal conductivity (304.18 K, 102 kPa, Gas): 0.01422 ± 0.00048 W/m/K
thermal conductivity (304.18 K, 441 kPa, Gas): 0.01406 ± 0.00048 W/m/K
thermal conductivity (304.34 K, 201 kPa, Gas): 0.01397 ± 0.00047 W/m/K
thermal conductivity (304.53 K, 514 kPa, Gas): 0.01408 ± 0.00048 W/m/K
thermal conductivity (304.57 K, 442 kPa, Gas): 0.01401 ± 0.00047 W/m/K
thermal conductivity (304.57 K, 514 kPa, Gas): 0.0141 ± 0.00048 W/m/K
thermal conductivity (304.66 K, 101 kPa, Gas): 0.0142 ± 0.00048 W/m/K
thermal conductivity (311.41 K, 326 kPa, Gas): 0.01522 ± 0.00051 W/m/K
thermal conductivity (311.43 K, 200 kPa, Gas): 0.01495 ± 0.0005 W/m/K
thermal conductivity (311.44 K, 102 kPa, Gas): 0.01483 ± 0.0005 W/m/K
thermal conductivity (311.61 K, 325 kPa, Gas): 0.01511 ± 0.00051 W/m/K
thermal conductivity (311.65 K, 200 kPa, Gas): 0.01482 ± 0.0005 W/m/K
thermal conductivity (311.67 K, 102 kPa, Gas): 0.01465 ± 0.00049 W/m/K
thermal conductivity (311.83 K, 325 kPa, Gas): 0.01504 ± 0.00051 W/m/K
thermal conductivity (311.89 K, 200 kPa, Gas): 0.0147 ± 0.0005 W/m/K
thermal conductivity (311.91 K, 101 kPa, Gas): 0.01455 ± 0.00049 W/m/K
thermal conductivity (312.06 K, 325 kPa, Gas): 0.015 ± 0.001 W/m/K
thermal conductivity (312.14 K, 200 kPa, Gas): 0.01462 ± 0.00049 W/m/K
thermal conductivity (312.16 K, 101 kPa, Gas): 0.01449 ± 0.00049 W/m/K
